Measurements taken from the supplement of paper PMC10307832.

How the values were obtained:
Experiment in all cases: relative viability (nuclei count vs DMSO), 5 days (fraction); higher = more cells survive
CUDC-101 + Bortezomib = compound: C#Cc1cccc(Nc2ncnc3cc(OC)c(OCCCCCCC(=O)NO)cc23)c1 [CUDC-101] + CC(C)C[C@H](NC(=O)[C@H](Cc1ccccc1)NC(=O)c1cnccn1)B(O)O [Bortezomib] (partner 0.002 µM)
Procedure, shortened: (§1)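 Medians of duplicate plates are given as relative viability. That measure is the nuclei count in treated wells divided by the count in vehicle wells. Counts were taken on 4× images of lung cancer cell lines in 1536-well plates, 5 days after pin-tool dosing the day after seeding with one drug alone or a fixed anchor-drug dose plus five library-drug doses (not always all listed) in √10 steps.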

[1] = compound: C1=CC=C2C(=C1)N=C(S2)C(C#N)C3=NC(=NC=C3)NCCC4=CN=CC=C4 + C[C@]1(O)C[C@@H](c2nc(-c3ccc4ccc(-c5ccccc5)nc4c3)c3c(N)nccn32)C1 [Linsitinib] (partner 1 µM)
Procedure, shortened: as §1

Vandetanib + OSI-027 = compound: COc1cc2/c(=N/c3ccc(Br)cc3F)nc[nH]c2cc1OCC1CCN(C)CC1 [Vandetanib] + COc1cccc2cc(-c3nc([C@H]4CC[C@H](C(=O)O)CC4)n4ncnc(N)c34)[nH]c12 [OSI-027] (partner 0.5 µM)
Procedure, shortened: as §1

Vandetanib + Linsitinib = compound: COc1cc2/c(=N/c3ccc(Br)cc3F)nc[nH]c2cc1OCC1CCN(C)CC1 [Vandetanib] + C[C@]1(O)C[C@@H](c2nc(-c3ccc4ccc(-c5ccccc5)nc4c3)c3c(N)nccn32)C1 [Linsitinib] (partner 1 µM)
Procedure, shortened: as §1

Cell Line	relative viability (CUDC-101 + Bortezomib; first compound 0.01 µM)	relative viability (CUDC-101 + Bortezomib; first compound 0.03162 µM)	relative viability (CUDC-101 + Bortezomib; first compound 0.1 µM)	relative viability (CUDC-101 + Bortezomib; first compound 0.3162 µM)	relative viability (CUDC-101 + Bortezomib; first compound 1 µM)	relative viability ([1]; first compound 0.005 µM)	relative viability ([1]; first compound 0.01581 µM)	relative viability ([1]; first compound 0.05 µM)	relative viability ([1]; first compound 0.1581 µM)	relative viability ([1]; first compound 0.5 µM)	relative viability (Vandetanib + OSI-027; first compound 0.02 µM)	relative viability (Vandetanib + OSI-027; first compound 0.06325 µM)	relative viability (Vandetanib + OSI-027; first compound 0.2 µM)	relative viability (Vandetanib + OSI-027; first compound 0.6325 µM)	relative viability (Vandetanib + OSI-027; first compound 2 µM)	relative viability (Vandetanib + Linsitinib; first compound 0.02 µM)	relative viability (Vandetanib + Linsitinib; first compound 0.06325 µM)	relative viability (Vandetanib + Linsitinib; first compound 0.2 µM)	relative viability (Vandetanib + Linsitinib; first compound 0.6325 µM)	relative viability (Vandetanib + Linsitinib; first compound 2 µM)
EMC-BAC-2	1.06	1.05	1.09	1.18	0.869	0.568	0.877	0.785	0.925	0.728	0.382	0.358	0.318	0.381	0.38	0.792	0.772	0.612	0.77	0.673
NCI-H1437	0.547	0.483	0.398	0.693	0.284	0.789	1.23	1.09	1.11	0.692	0.835	0.899	0.868	0.886	0.964	0.994	0.971	1.04	1.01	0.966
NCI-H1944						1.09	1.25	1.2	1.34	1.2	0.398	0.433	0.408	0.396	0.382	1.08	1.16	1.18	0.981	0.94
NCI-H838	0.872	0.728	0.879	1.25	0.533	0.713	1.08	0.957	1.03	0.874	0.409	0.379	0.37	0.333	0.424	1.02	1.07	1.02	1.01	1.01
HCC-827	1.08	1.07	0.788	0.439	0.344	0.988	0.987	0.961	1.03	0.931	0.895	0.752	0.707	0.164	0.149	0.922	0.941	0.929	0.367	0.198
NCI-H2342											0.616	0.597	0.644	0.669	0.591					
LOU-NH91	0.544	0.488	0.452	0.405	0.448	0.919	0.931	0.834	0.973	0.935	0.76	0.604	0.599	0.502	0.515	0.954	0.733	0.679	0.685	0.629
NCI-H3122	1.06	0.984	1.05	1.01	1.01	1.02	0.992	1.04	1.07	0.999	0.97	0.924	0.937	0.931	1.06	1.01	0.946	0.957	0.964	0.993
NCI-H1563	0.842	0.712	0.948	0.916	0.792	1.27	1.32	1.16	1.2	1.18	0.79	0.8	0.743	0.76	0.734	1.24	1.06	1.18	1.19	1.11
NCI-H1734	1.12	0.919	0.874	0.956	0.478	0.779	0.939	0.881	0.946	0.797	0.576	0.605	0.543	0.611	0.652	0.849	0.891	0.849	0.89	0.848
EPLC-272H	0.729	1	0.882	0.627	0.384	1.01	1.3	1.12	1.27	1.12	0.319		0.305	0.286	0.265	1.21	0.971	1.11	1.13	1.18
RERF-LC-KJ	1.2	1.07	1.09	1.14	0.97	1.01	0.877	0.853	0.861	0.781	0.627	0.537	0.545	0.471	0.412	0.922	0.859	0.939	0.835	0.763
EBC-1	0.658	0.421	0.409	0.245	0.153	1.04	0.871	0.502	1.01	0.812						0.742	0.893	0.958	0.885	0.925
HARA	1.21	1.09	1.08	0.918	0.709	0.731	0.937	0.934	1.12	0.788	0.542	0.299	0.466	0.525	0.483	1.03	0.749	1.04	0.985	0.989
NCI-H1651	1.04	0.946	0.957	0.912	0.921	0.695	0.846	1	1.18	0.921	0.595	0.703	0.667	0.616	0.628	1	0.87	0.956	0.873	0.806
NCI-H2405	0.969	1.04	0.936	1.02	0.982	0.817	0.889	0.847	0.911	1.01	0.621	0.422	0.72	0.671	0.482	0.901	0.552	0.959	1.01	0.665
NCI-H596	1.13	1.13	1.18	0.98	1	0.921	1.12	1.05	1.15	0.951	0.751	0.674	0.665	0.726	0.74	1.04	0.942	1.11	0.956	0.972
NCI-H2009	1.01	1.04	1.05	1.04	0.889	1.15	1.22	1.22	1.25	1.07	0.643	0.6	0.687	0.644	0.59	1.17	1.16	1.3	1.22	1.19
NCI-H2170											0.641	0.673	0.727	0.655	0.811					
NCI-H1648											0.253	0.276	0.28	0.258	0.252					

Cell Line	relative viability (CUDC-101 + Bortezomib; first compound 0.01 µM)	relative viability (CUDC-101 + Bortezomib; first compound 0.03162 µM)	relative viability (CUDC-101 + Bortezomib; first compound 0.1 µM)	relative viability (CUDC-101 + Bortezomib; first compound 0.3162 µM)	relative viability (CUDC-101 + Bortezomib; first compound 1 µM)	relative viability ([1]; first compound 0.005 µM)	relative viability ([1]; first compound 0.01581 µM)	relative viability ([1]; first compound 0.05 µM)	relative viability ([1]; first compound 0.1581 µM)	relative viability ([1]; first compound 0.5 µM)	relative viability (Vandetanib + OSI-027; first compound 0.02 µM)	relative viability (Vandetanib + OSI-027; first compound 0.06325 µM)	relative viability (Vandetanib + OSI-027; first compound 0.2 µM)	relative viability (Vandetanib + OSI-027; first compound 0.6325 µM)	relative viability (Vandetanib + OSI-027; first compound 2 µM)	relative viability (Vandetanib + Linsitinib; first compound 0.02 µM)	relative viability (Vandetanib + Linsitinib; first compound 0.06325 µM)	relative viability (Vandetanib + Linsitinib; first compound 0.2 µM)	relative viability (Vandetanib + Linsitinib; first compound 0.6325 µM)	relative viability (Vandetanib + Linsitinib; first compound 2 µM)
NCI-H1623											0.479	0.439	0.454	0.398	0.455					
LU99A	1.36	1.14	1.04	0.998	0.635	0.517	0.517	0.553	0.611	0.553	0.267	0.314	0.267	0.264	0.317	0.487	0.529	0.599	0.522	0.55
PC-3 [JPC-3]	0.885	0.927	0.779	0.642	0.629	0.898	0.983	0.957	0.942	0.965	0.757	0.768	0.795	0.462	0.45	0.946	0.882	0.963	0.876	0.522
A549						0.476	0.684	0.549	0.661	0.595						0.718	0.498	0.711	0.587	0.495
HCC-44	0.798	1.05	0.829	0.999	0.88	0.655	0.724	0.696	0.666	0.65	0.434	0.49	0.574	0.439	0.427	0.642	0.64	0.753	0.724	0.688
H3255	0.743	0.736	0.32	0.541	0.186	0.89	1.01	0.908	1.05	1.04	0.655	0.459	0.455	0.417	0.227	1.1	0.9	0.949	0.654	0.181
LXF-289	1.02	0.987	0.972	0.953	0.704	0.853	1.01	1.05	1.04	0.92	0.774	0.708	0.877	0.771	0.741	0.949	0.942	0.957	0.971	0.967
Calu-6	0.955	1.07	1.05	1.06	0.815	0.884	0.982	0.89	1.07	0.914						0.939	0.861	0.911	0.975	0.876
NCI-H1703	0.401		0.305	0.194	0.13	0.547	0.711		0.718	0.676						0.543	0.73	1.14	0.637	0.535
SK-MES-1						1.17	1.07	1.09	1.12	0.97	0.678	0.559	0.691	0.618	0.448	1.09	0.925	1.06	0.971	0.989
NCI-H1299	1.05	0.997	1.07	1.05	1.03	0.92	0.99	0.744	1.07	0.912						0.912	0.916	0.997	0.957	1
ChaGo-K-1	1.22	1.31	0.821	1.03	0.963						0.532	0.54	0.515	0.602	0.591					
NCI-H358						0.533	0.739	0.654	0.722	0.654	0.706	0.569	0.678	0.504	0.307	0.764	0.708	0.201	0.501	0.301
NCI-H1650	0.179	0.216	0.202	0.194	0.163						0.621	0.436	0.552	0.452	0.439					
NCI-H1395						1.07		0.978	1.07	1.29	0.614	0.65	0.665	0.526	0.588	1.1	1.09	0.934	0.968	1.18
LK-2						0.409	0.736	0.621	0.689	0.555	0.243	0.213	0.203	0.197	0.227	1.08	0.513	0.909	0.9	0.319
SW 900											0.456	0.486	0.315	0.622	0.713					
NCI-H522											0.77	0.727	0.772	0.674	0.61					
NCI-H1793						0.782	0.956	0.886	1.25	0.87	0.302	0.25	0.238	0.292	0.274	0.87	0.74	0.819	0.897	0.587
IA-LM	0.772	0.781	0.795	0.575	0.196		0.544	0.32	0.607	0.637						0.616	0.567	0.616	0.593	0.673
